Experimental data taken from US20070149481A1, “N,n-bridged, nitrogen-substituted carbacyclic indolocarbazoles as protein kinase inhibitors” (priority 2002, published 2007).

Columns and labels:
Format in all cases: biochemical
Conditions in all cases: 10 μM compound
GSK3β = molecular target: T1, GSK3β (Homo sapiens, UniProt P49841); test: Glycogen Synthase Kinase 3β inhibition assay (GSK3β)
T1 construct: purchased Upstate Discovery
Description: The GSK3β kinase activity assay utilizes a radioactivity-based format in a 96-well PCR plate with radioactive readout. The GSK3 β activity was assayed in a 25 μL assay mixture containing 8 mM HEPES (pH 7.0), 250 μM ATP, 0.2 mM EDTA (pH 8), 2% DMSO, 250 ng/mL Myelin Basic Protein (MBP, Sigma M-1891), and 12 ng/mL GSK3β (Upstate Discovery, specific activity=607 nmol/min*GS2 peptide, concentration of 6.05 mg/mL). Compounds were screened for inhibition of the GSK3β kinase activity at a concentration of 10 μM. The kinase reaction was allowed to proceed at 37° C. for 30 minutes, then the reaction was stopped by addition of 5 μL of 0.5M EDTA (pH 8).

[1] = molecular target: T2, PKA (catalytic subunit, bovine heart) (Bos taurus, UniProt P00517); test: Protein Kinase A inhibition assay (PKA)
T2 construct: PKA (catalytic subunit, bovine heart, Calbiochem 539486); purchased Calbiochem 539486; host or cells: bovine heart (tissue-derived)
Description: (§1) The ERK2 kinase activity assay utilizes a radioactivity-based format in a 96-well PCR plate with radioactive readout. The ERK2 activity was assayed in a 25 μL assay mixture containing 25 mM HEPES (pH 7.0), 250 μM ATP, 1 mM MgCl2, 1 mM DTT, 2% DMSO, 150 ng/mL Myelin Basic Protein (MBP, Sigma M-1891), and 13.6 ng/mL His tagged ERK2 (specific activity=38.1 nmol/min*mg). Compounds were screened for inhibition of the ERK2 kinase activity at a concentration of 10 μM. The kinase reaction was allowed to proceed at 37° C. for 30 minutes, then reaction was stopped by the addition of 5 μl of 0.5M EDTA (pH 8). 15 μL of each solution were then spotted onto the corresponding square of a filtermat (8×12 glassfibre mat 90×120 mm, PE-Wallac 1450-421). The filtermat was allowed to dry and washed once with 10% TCA, 2% PPA, 500 mM NaCl each for 30 minutes at rt. Two further washings in 10% TCA and 2% PPA for 30 minutes were performed, then a final 30 minute wash in 99% EtOH at rt was done and the filtermat was air dried. The dry filtermat was then placed in a sample bag with a Meltilex sheet (Melt-on scintillator sheets 73×109 mm, PE-Wallac 1450-441 for filtermat A) over the filtermat. The bag was trimmed to fit into the microplate heatsealer (PE-Wallac 1495-021). The heatsealer is used to melt the Meltilex on the filtermat. The bag containing the filtermat and the melted Meltilex was then placed into a filter cassette and counted using the Microbeta Jet Scintillation and Luminescence Counter PE-Wallac 1450.
The PKA kinase activity assay utilizes a radioactivity-based format in a 96-well PCR plate with radioactive readout. The PKA activity was assayed in a 25 μL assay mixture containing 25 mM HEPES (pH 7.0), 250 μM ATP, 10 mM MgCl2, 1 mM DTT, 1 mM EDTA (pH 8). 2% DMSO. 250 ng/mL Histone H2B (Roche 223 514), and 2 ng/mL PKA (catalytic subunit, bovine heart, Calbiochem 539486, specific activity=1170 pmol/min*μg). Compounds were screened for inhibition of the PKA kinase activity at a concentration of 10 μM. The kinase reaction was allowed to proceed at 37° C. for 30 minutes, then the reaction was stopped by addition of 5 μL of 0.5M EDTA (pH 8). The remainder of the protocol is identical to the one reported for ERK2.

PKC (rat brain) = test: Protein Kinase C inhibition assay (PKC)
Description: as §1
The PKC kinase activity assay utilizes a radioactivity-based format in a 96-well PCR plate with radioactive readout. The PKC activity was assayed in a 25 μL assay mixture containing 25 mM HEPES (pH 7.0), 250 μM ATP, 10 mM MgCl2, 1 mM DTT, 1 mM EDTA (pH 8), 2 mM CaCl2, 2% DMSO, 250 ng/mL Histone H1 (Roche 1 004 875), and 165 ng/mL PKC (rat brain, Calbiochem 539494, specific activity=1600 nmol/min*mg). Compounds were screened for inhibition of the PKC kinase activity at a concentration of 10 μM. The kinase reaction was allowed to proceed at 37° C. for 30 minutes, then the reaction was stopped by addition of 5 μL of 0.5M EDTA (pH 8). The remainder of the protocol is identical to the one reported for ERK2.

His tagged ERK2 = His tagged ERK2 (Homo sapiens, UniProt P28482); test: Extracellular signal Regulated Kinase 2 inhibition assay (ERK2), radioactive filtermat format
Description: as §1

T1 sequence (P49841 whole entry, species assumed): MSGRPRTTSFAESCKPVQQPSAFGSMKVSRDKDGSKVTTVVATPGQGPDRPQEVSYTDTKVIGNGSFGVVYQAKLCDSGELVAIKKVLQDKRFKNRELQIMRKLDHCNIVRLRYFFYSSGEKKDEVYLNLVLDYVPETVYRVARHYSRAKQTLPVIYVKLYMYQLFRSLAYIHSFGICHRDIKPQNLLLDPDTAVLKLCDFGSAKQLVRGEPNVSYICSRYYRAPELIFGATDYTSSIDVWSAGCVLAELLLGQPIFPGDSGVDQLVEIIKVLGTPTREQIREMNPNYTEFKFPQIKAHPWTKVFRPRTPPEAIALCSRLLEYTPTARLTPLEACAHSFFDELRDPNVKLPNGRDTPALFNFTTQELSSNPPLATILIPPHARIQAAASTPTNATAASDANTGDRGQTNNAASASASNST
His tagged ERK2, sequence (P28482 whole entry): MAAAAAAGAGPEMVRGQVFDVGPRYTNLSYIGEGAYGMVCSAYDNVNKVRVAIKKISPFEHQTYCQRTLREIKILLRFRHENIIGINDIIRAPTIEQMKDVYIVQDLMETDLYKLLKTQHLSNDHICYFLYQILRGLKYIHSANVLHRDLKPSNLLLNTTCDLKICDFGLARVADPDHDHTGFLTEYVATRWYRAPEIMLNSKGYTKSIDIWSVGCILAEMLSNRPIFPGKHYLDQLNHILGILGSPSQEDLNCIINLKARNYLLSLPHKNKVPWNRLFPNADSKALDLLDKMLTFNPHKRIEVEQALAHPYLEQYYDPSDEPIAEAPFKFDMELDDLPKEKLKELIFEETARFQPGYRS

| inhibition at 10 µM (GSK3β) | inhibition at 10 µM [1] | % Inhibition PKC (PKC (rat brain)) | inhibition at 10 µM (His tagged ERK2) | % Inhibition GSK3β (GSK3β) | % Inhibition PKA [1] | % Inhibition ERK2 (His tagged ERK2) | Structure (SMILES) |
| --- | --- | --- | --- | --- | --- | --- | --- |
| < 10% | 17.6% | 49.73% | 30.9% |  |  |  | COc1ccc(CN2C(=O)c3c(c4c5ccccc5n5c4c4c3c3ccccc3n4C3CC5[C@@H](N)C3)C2=O)cc1 (mixture of isomers) [Compound 1] |
| 78.2% | 68.4% | 90.78% | 65.3% |  |  |  | CN[C@H]1CC2CC1n1c3ccccc3c3c4c(c5c6ccccc6n2c5c31)C(=O)NC4=O (mixture of isomers) [Compound 2] |
| 19.3% | 26.1% | 75.80% | 39.9% |  |  |  | O=C1NC(=O)c2c1c1c3ccccc3n3c1c1c2c2ccccc2n1C1CC3C[C@@H]1N1CCOCC1 (mixture of isomers) [Compound 3] |
| 98.5% | 89.6% | 78.10% | 94.1% |  |  |  | N#C[C@]1(N)CC2CC1n1c3ccccc3c3c4c(c5c6ccccc6n2c5c31)C(=O)NC4=O (mixture of isomers) [Compound 4] |
| 99.2% | 95.3% | 90.75% | 93.5% |  |  |  | CNC(=O)[C@]1(N)CC2CC1n1c3ccccc3c3c4c(c5c6ccccc6n2c5c31)C(=O)NC4=O (mixture of isomers) [Compound 10] |
| 99.2% | 90.5% | 95.94% | 93.6% |  |  |  | N[C@@]1(C(=O)NCCO)CC2CC1n1c3ccccc3c3c4c(c5c6ccccc6n2c5c31)C(=O)NC4=O (mixture of isomers) [Compound 11] |
| 100% | 99.9% | 96.63% | 98.1% |  |  |  | NC(=O)[C@]1(N)C[C@@H]2CC1n1c3ccc(O)cc3c3c4c(c5c6cc(O)ccc6n2c5c31)C(=O)NC4=O (mixture of isomers) [Compound 12] |
| < 10% | 13.2% | 13.67% | 24.7% |  |  |  | COc1ccc(CN2C(=O)c3c(c4c5ccccc5n5c4c4c3c3ccccc3n4C3CC5[C@]4(C3)NC(=O)NC4=O)C2=O)cc1 (mixture of isomers) [Compound 13] |
| < 10% | 16.6% | 34.01% | 46.6% |  |  |  | COc1ccc(CN2C(=O)c3c(c4c5ccccc5n5c4c4c3c3ccccc3n4C3CC5[C@]4(C3)NC(=O)N(C)C4=O)C2=O)cc1 (mixture of isomers) [Compound 14] |
| 96.9% | 79.8% | 88.68% | 94.6% |  |  |  | [N-]=[N+]=NC1C2CC([C@H]1O)n1c3ccccc3c3c4c(c5c6ccccc6n2c5c31)C(=O)NC4=O (mixture of isomers) [Compound 15] |
| 98.5% | 84.8% | 93.34% | 98.2% |  |  |  | N[C@@H]1C2CC([C@H]1O)n1c3ccccc3c3c4c(c5c6ccccc6n2c5c31)C(=O)NC4=O (mixture of isomers) [Compound 16] |
| 12.1% | < 10% | 96.75% | < 10% |  |  |  | COC(=O)c1cn([C@@H]2C3CC([C@H]2O)n2c4ccccc4c4c5c(c6c7ccccc7n3c6c42)C(=O)NC5=O)nn1 (mixture of isomers) [Compound 17] |
| 75.9% | 11.5% | 21.55% | < 10% |  |  |  | O=C(O)c1cn([C@@H]2C3CC([C@H]2O)n2c4ccccc4c4c5c(c6c7ccccc7n3c6c42)C(=O)NC5=O)nn1 (mixture of isomers) [Compound 18] |
|  |  | 70.41% |  | 72.56% | 27.53% | 53.66% | O=C1NC(=O)c2c1c1c3ccccc3n3c1c1c2c2ccccc2n1C1CC3CC1NCc1ccccc1 (stereo not shown) [Compound 23] |
|  |  | 28.18% |  | NA (NA = <10% inhibition) | 10.67% | 28.09% | COc1ccc(CN2C(=O)c3c(c4c5ccccc5n5c4c4c3c3ccccc3n4C3CC(N4CCCCC4)C5C3)C2=O)cc1 (stereo not shown) [Compound 24] |
|  |  | 15.94% |  | NA (NA = <10% inhibition) | NA (NA = <10% inhibition) | 33.51% | COc1ccc(CN2C(=O)c3c(c4c5ccccc5n5c4c4c3c3ccccc3n4C3CC(NCCO)C5C3)C2=O)cc1 (stereo not shown) [Compound 25] |
| < 10% | < 10% | 10.18% | 67.6% |  |  |  | COc1ccc(CN2C(=O)c3c(c4c5ccccc5n5c4c4c3c3ccccc3n4C3CC5[C@@H](N4CCOCC4)C3)C2=O)cc1 (stereo partly shown) [Compound 26] |
|  |  | 32.18% |  | 18.28% | 30.19% | 63.52% | CNC1(C#N)CC2CC1n1c3ccccc3c3c4c(c5c6ccccc6n2c5c31)C(=O)N(Cc1ccc(OC)cc1)C4=O (stereo not shown) [Compound 27] |
| 25.6% | < 10% | 28.19% | 48.7% |  |  |  | COc1ccc(CN2C(=O)c3c(c4c5ccccc5n5c4c4c3c3ccccc3n4C3CC5[C@](N)(C#N)C3)C2=O)cc1 (stereo partly shown) [Compound 28] |
|  |  | 46.63% |  | 54.14% | 18.38% | 56.44% | O=C1NC(=O)c2c1c1c3ccccc3n3c1c1c2c2ccccc2n1C1CC3CC1N1CCCCC1 (stereo not shown) [Compound 29] |
|  |  | 29.04% |  | NA (NA = <10% inhibition) | NA (NA = <10% inhibition) | 44.61% | CCCCNC1CC2CC1n1c3ccccc3c3c4c(c5c6ccccc6n2c5c31)C(=O)N(Cc1ccc(OC)cc1)C4=O (stereo not shown) [Compound 30] |
|  |  | 21.91% |  | NA (NA = <10% inhibition) | NA (NA = <10% inhibition) | 42.42% | COc1ccc(CN2C(=O)c3c(c4c5ccccc5n5c4c4c3c3ccccc3n4C3CC(N(C)C)C5C3)C2=O)cc1 (stereo not shown) [Compound 31] |

| Structure (SMILES) | inhibition at 10 µM (GSK3β) | inhibition at 10 µM [1] | % Inhibition PKC (PKC (rat brain)) | inhibition at 10 µM (His tagged ERK2) | % Inhibition GSK3β (GSK3β) | % Inhibition PKA [1] | % Inhibition ERK2 (His tagged ERK2) |
| --- | --- | --- | --- | --- | --- | --- | --- |
| CCOC(=O)[C@]1(N)CC2CC1n1c3ccccc3c3c4c(c5c6ccccc6n2c5c31)C(=O)NC4=O (stereo partly shown) [Compound 6] | 94.2% | 59.4% | 83.97% | 61.3% |  |  |  |
| N[C@@]1(C(=O)O)CC2CC1n1c3ccccc3c3c4c(c5c6ccccc6n2c5c31)C(=O)NC4=O (stereo partly shown) [Compound 7] | 99% | 62.5% | 85.71% | 94.7% |  |  |  |
| COC(=O)[C@]1(N)CC2CC1n1c3ccccc3c3c4c(c5c6ccccc6n2c5c31)C(=O)NC4=O (stereo partly shown) [Compound 8] | 96.9% | 70.8% | 59.42% | 50.2% |  |  |  |
